Results taken from PubChem BioAssay AID624254 (Broad Institute, 2012).
Active and inactive are the calls of the source. No rule for the calls is given here.

These compounds were tested against V. cholerae BH1651 luxOD47E, luciferase light induction, 6 h (assay: Luciferase light induction in v cholerae bh1651, agonist dose response, confirmatory (AID 624254)).

First: Cc1nc2ncnn2c(C)c1Cc1c(Cl)cccc1Cl
Second: Cn1c(Cn2cnc(Cl)c2Cl)nc2ccccc21
The AC50 of the first is 5.8-fold higher: 1220 nM for the first, 210 nM for the second.

Compared with `O=C(NCc1ccccn1)C(C(=O)c1ccc(F)cc1)n1ccccc1=O` (configuration not stated), `O=C(NCc1ccccn1)c1ccc(CS(=O)(=O)Cc2ccc(Cl)cc2)o1` is 420-fold higher in AC50: 49.3 nM for the first, 20500 nM for the second.

`O=C(NCCC(=O)N1CCCCC1)c1ccc(Br)cc1` and `O=C(Cn1cccc1C(=O)c1ccccc1)NCCN1CCCCCC1` are within 1.5-fold of each other in AC50: 25000 nM for the first, 25600 nM for the second.

Going from `C[C@H]1CN([C@@H](C)CO)C(=O)c2cccc(NC(=O)Nc3ccc4c(c3)OCO4)c2O[C@@H]1CN(C)S(=O)(=O)c1ccccc1` to `C[C@H](CO)N1C[C@H](C)[C@@H](CN(C)S(=O)(=O)c2cccs2)Oc2c(NC(=O)Nc3ccc4c(c3)OCO4)cccc2C1=O`, the AC50 falls from 2250 nM to 1180 nM (1.9-fold).

Going from `CC(C)n1nnnc1SCC(=O)c1ccc2c(c1)OCCO2` to `O=C(CSc1nnc2ccccn12)c1ccc2c(c1)OCCO2`, the AC50 rises from 845 nM to 17000 nM (20-fold).

First: CCn1nc(NC(=O)c2ccco2)c2cc3ccccc3nc21
Second: CCOc1ccc(CNC(=O)c2ccco2)cc1
The AC50 of the first is 15-fold lower: 2360 nM for the first, 35600 nM for the second.

Going from `O=C(Nc1nnc(C(F)(F)F)s1)C1COc2ccccc2O1` (configuration not stated) to `CCC(CC)c1nnc(NC(=O)COc2ccc3c(C)cc(=O)oc3c2)s1`, the AC50 falls from 13700 nM to 99.8 nM (140-fold).

Going from `CCOC(=O)C1=C(C)N=C2SCCC(=O)N2C1c1cc(Br)ccc1OC` (configuration not stated) to `CCn1cc(C(=O)NC2CCCCC2C)c(=O)c2ccc(C)nc21` (configuration not stated), the AC50 rises from 35.4 nM to 1080 nM (31-fold).

Going from `CCc1ccc(NS(=O)(=O)c2cccs2)cc1` to `COc1ccc(S(=O)(=O)N2CCN(c3cnccn3)CC2)cc1`, the AC50 rises from 212 nM to 2580 nM (12-fold).

Compared with `COc1ccc(C)c2sc(N3CCCC3)nc12`, `CSc1nc(C)cc(OCC(=O)N2CCOCC2)n1` is 13-fold lower in AC50: 1520 nM for the first, 113 nM for the second.

First: COc1ccc(OC)c(S(=O)(=O)N2CCC(C(=O)N3CCc4ccccc4C3)CC2)c1
Second: CCCS(=O)(=O)N1CCCC(C(=O)N2CCN(c3ccccc3)CC2)C1 (configuration not stated)
The AC50 of the first is 4.6-fold higher: 191 nM for the first, 41.3 nM for the second.

First: O=C(c1cc2cc(Cl)ccc2oc1=O)N1CCOCC1
Second: O=C(c1ccc(C(=O)N2CCOCC2)nc1)N1CCOCC1
The AC50 of the first is 2.7-fold lower: 67.8 nM for the first, 183 nM for the second.

Compared with `COc1ccc(-c2noc(CCC(=O)N3CCN(c4cccc(C(F)(F)F)c4)CC3)n2)cc1`, `CCCOc1ccc(-c2nc(OC)c3ccccc3n2)cc1` is 10-fold higher in AC50: 685 nM for the first, 7010 nM for the second.

Going from `O=[N+]([O-])c1ccc(N2CCOCC2)c2c1no[n+]2[O-]` to `CCOc1ccc(CCNC(=O)C2CCN(c3ccc(N4CCOCC4)nn3)CC2)cc1OCC`, the AC50 falls from 1740 nM to 44.5 nM (39-fold).

First: O=C(CCN1C(=O)c2ccccc2C1=O)N1CCN(C2c3ccccc3-c3ccccc32)CC1
Second: COc1ccc(NC(=O)Nc2cccc3c2O[C@H](CN(C)S(=O)(=O)c2ccccc2)[C@@H](C)CN([C@H](C)CO)C3=O)cc1
The AC50 of the first is 63-fold lower: 209 nM for the first, 13200 nM for the second.

First: COc1ccc(CNc2nnnn2C)cc1
Second: CCCCn1nnnc1NCc1ccc(N2CCCC2)cc1
The AC50 of the first is 11-fold lower: 3510 nM for the first, 38700 nM for the second.

Going from `CN(CC(=O)Nc1c(Cl)cccc1Cl)C(=O)c1n[nH]c2ccccc12` to `C=CCn1c(NCc2ccccc2)nc2ccccc21`, the AC50 falls from 38800 nM to 11700 nM (3.3-fold).

Compared with `CCCCCc1c(C)nc(N2CCc3ccccc3C2)[nH]c1=O`, `Cc1ccc(Cn2c(SCC(C)C)nc3c2c(=O)[nH]c(=O)n3C)cc1` is 1.8-fold lower in AC50: 295 nM for the first, 166 nM for the second.

`CCOC(=O)CSc1nc(N)c(C#N)c(-c2cccs2)c1C#N` and `CCOC(=O)c1cnc2nc(C(F)(F)F)[nH]n2c1=O` are within 1.5-fold of each other in AC50: 11700 nM for the first, 15700 nM for the second.

Compared with `CN(C(=O)Cn1cc(C(F)(F)F)cc(Cl)c1=O)C1CCS(=O)(=O)C1` (configuration not stated), `COc1cccc(OCC(=O)NC2CCCCC2)c1` is 2-fold higher in AC50: 1230 nM for the first, 2430 nM for the second.

Compared with `COc1ccc(Cl)cc1S(=O)(=O)NC(C)C(=O)NCCCn1ccnc1` (configuration not stated), `Cc1noc(C)c1S(=O)(=O)Nc1ccc2c(c1)C(=O)N([C@H](C)CO)C[C@H](C)[C@@H](CN(C)Cc1ccc(C(=O)O)cc1)O2` is 100-fold higher in AC50: 180 nM for the first, 18800 nM for the second.

For `CC(C)Cn1c(CN2CCN(C)C(CCO)C2)nc2ccccc21` (configuration not stated), the AC50 was > 50000 nM (inactive).
`COCc1[nH]nc2c1C1(CCC3(CC1)OCCO3)C(C#N)=C(N)O2` was tested, and the AC50 was > 50000 nM (inactive).
For `Cc1noc(C)c1C(=O)OCC(=O)c1c[nH]c2ccccc12`, the AC50 was > 50000 nM (inactive).
For `CC(=O)N1CCN(C(=O)COc2ccc(Br)cc2)CC1`, the AC50 was > 50000 nM (inactive).
In the case of `COC(=O)C(C)N(c1ccc(C)cc1)S(=O)(=O)c1c(C)[nH]c(=O)[nH]c1=O` (configuration not stated), the AC50 was > 50000 nM (inactive).
For `Cc1cccc(-c2cc3nc4c(c(N5CCC6(CC5)OCCO6)n3n2)CCCC4)c1`, the AC50 was > 50000 nM (inactive).
In the case of `O=C(NCc1ccco1)C1CCCN1S(=O)(=O)c1ccc2ccccc2c1` (configuration not stated), the AC50 was > 50000 nM (inactive).
`CC(C)(C)Cc1nc(-c2ccccn2)no1` was tested, and the AC50 was > 50000 nM (inactive).
For `O=C(O)c1cccc(Nc2ncnc3c2cnn3-c2ccccc2)c1`, the AC50 was > 50000 nM (inactive).
`CCC(Oc1ccccc1)C(=O)Nc1ccc(-c2nnc(-c3ccco3)o2)cc1` (configuration not stated) was tested, and the AC50 was > 50000 nM (inactive).
